The values that follow come from patent US11986526B2, “Liquid protein formulations containing 4-ethyl-4-methylmorpholinium methylcarbonate (EMMC)” (Eagle Biologics, Inc., priority 2013, dated 2024).

Where “and” joins values, the source holds several entries; their conditions need not be identical. Identical values can stand only once.

Data set [1] relates to aqueous solutions of HERCEPTIN®. In words: Viscosity of concentrated aqueous solutions of HERCEPTIN with ionic liquids (mVROC microfluidic viscometer). The data set is classed as physicochemical. Particulars: for Viscosity: 25° C., pH 7. The source says: The protein was formulated either with phosphate buffer or with various viscosity-reducing ionic liquids at concentrations in the table listed below.

Data set [2] deals with aqueous solutions of TYSABRI®. In words: Viscosity of concentrated aqueous solutions of TYSABRI with excipients (mVROC microfluidic viscometer). The class given is physicochemical. Particulars: for Viscosity: 25° C., pH 7.
Procedure: (§1) All viscosities of well-mixed aqueous mAb solutions were measured using either a mVROC microfluidic viscometer (RheoSense) or a DV2T cone and plate viscometer (Brookfield; “C & P”) after a 5 minute equilibration at 25 °C (unless otherwise indicated). The mVROC viscometer was equipped with an “A” or “B” chip, each manufactured with a 50 micron channel. Typically, 0.10 mL of protein solution was back-loaded into a gastight microlab instrument syringe (Hamilton; 100 μL), affixed to the chip, and measured at multiple flow rates, approximately 20%, 40%, and 60% of the maximum pressure for each chip. […] An average absolute viscosity and standard deviation was then calculated from at least these three measurements. The C & P viscometer was equipped with a CPE40 or CPE52 spindle (cone angle of 0.8° and 3.0°, respectively) and 0.50 mL samples were measured at multiple shear rates between 2 and 400 s^−1. […] An extrapolated zero-shear viscosity was then determined from a plot of dynamic viscosity versus shear rate for the samples measured on a DV2T cone and plate viscometer. The extrapolated zero-shear viscosities reported are the average and standard deviation of at least three measurements.
The dried protein cakes, containing protein and buffer salts or viscosity-reducing ionic liquid, were reconstituted to a final volume of approximately 0.10-1.30 mL. […] Then, an appropriate amount of viscosity-reducing ionic liquid solution (pH 7.0) was added to each aliquot such that upon reconstitution with water, the final excipient concentration was 0.1-0.5 M. The protein solutions were then freeze-dried. The dried protein cakes, containing protein and viscosity-reducing ionic liquid (and a negligible amount of buffer salts) were reconstituted to a final volume of approximately 0.1 mL and viscosity-reducing ionic liquid concentration as indicated in the tables below. The final concentration of mAb in solution was determined by light absorbance at 280 nm using an experimentally determined extinction coefficient of 1.7 L/g·cm and viscosities reported were measured on a RheoSense mVROC microfluidic viscometer.
(§2) Viscosities were measured using a RheoSense mVROC microfluidic viscometer equipped with an “A” or “B” chip.
Data set [3] deals with aqueous solutions of biosimilar AVASTIN®. In words: Viscosity of concentrated aqueous solutions of biosimilar AVASTIN with ionic liquids (mVROC microfluidic viscometer). The class given is physicochemical. Particulars: 25° C., pH 7.
Procedure: as §1
(§3) First, Polysorbate 20 was removed using DETERGENT-OUT® TWEEN Medi Columns (G-Biosciences). […] The dried protein cakes, containing protein and buffer salts or viscosity-reducing ionic liquid, were reconstituted to a final volume of approximately 0.10-1.30 mL. […] Then, an appropriate amount of viscosity-reducing ionic liquid solution (pH 7.0) was added to each aliquot such that upon reconstitution with water, the final excipient concentration was 0.1-0.5 M. The protein solutions were then freeze-dried. The dried protein cakes, containing protein and viscosity-reducing ionic liquid (and a negligible amount of buffer salts) were reconstituted to a final volume of approximately 0.1 mL and viscosity-reducing ionic liquid concentration as indicated in the tables below. The final concentration of mAb in solution was determined by light absorbance at 280 nm using an experimentally determined extinction coefficient of 1.7 L/g·cm and viscosities reported were measured on a RheoSense mVROC microfluidic viscometer.
The test system of data set [4] is respiratory syncytial virus infection. Particulars: two Phase III clinical trials, pediatric population; cited from earlier work.
The conditions of data set [5]: studies evaluating long-term clinical outcomes; cited from earlier work.
Data set [6] concerns aqueous solutions of biosimilar ERBITUX®. In words: Viscosity of concentrated aqueous solutions of biosimilar ERBITUX at various BIM concentrations (mVROC microfluidic viscometer). The class given is physicochemical. As to conditions: for Viscosity: 25° C., pH 7.
Procedure: All viscosities of well-mixed aqueous mAb solutions were measured using either a mVROC microfluidic viscometer (RheoSense) or a DV2T cone and plate viscometer (Brookfield; “C & P”) after a 5 minute equilibration at 25 °C (unless otherwise indicated). The mVROC viscometer was equipped with an “A” or “B” chip, each manufactured with a 50 micron channel. Typically, 0.10 mL of protein solution was back-loaded into a gastight microlab instrument syringe (Hamilton; 100 μL), affixed to the chip, and measured at multiple flow rates, approximately 20%, 40%, and 60% of the maximum pressure for each chip. […] An average absolute viscosity and standard deviation was then calculated from at least these three measurements. The C & P viscometer was equipped with a CPE40 or CPE52 spindle (cone angle of 0.8° and 3.0°, respectively) and 0.50 mL samples were measured at multiple shear rates between 2 and 400 s^−1. Specifically, samples were measured for 30 seconds each at 22.58, 24.38, 26.25, 28.13, 30, 31.88, 45, 67.5, 90, 112.5, 135, 157.5, 180, 202.5, 247, 270, 292.5, 315, 337.5, 360, 382, 400 s^−1, starting at a shear rate that gave at least 10% torque, and continuing until instrument torque reached 100%. An extrapolated zero-shear viscosity was then determined from a plot of dynamic viscosity versus shear rate for the samples measured on a DV2T cone and plate viscometer. The extrapolated zero-shear viscosities reported are the average and standard deviation of at least three measurements.
as §3, §2
In data set [7] the test system is aqueous solutions of REMICADE®. In words: Viscosity of concentrated aqueous solutions of REMICADE with and without BIM (mVROC microfluidic viscometer). The data set is classed as physicochemical. How it is done: A commercially-obtained biosimilar AVASTIN® containing pharmaceutical excipients (Polysorbate 20, phosphate and citrate buffers, mannitol, and NaCl) was purified. […] For samples containing 4-ethyl-4-methylmorpholinium methyl carbonate (EMMC), protein was thoroughly buffer exchanged into 2 mM PB (pH 7.0). For samples buffer exchanged into 20 mM PB (PB control samples) or 20 mM viscosity-reducing ionic liquid, the collected protein solution was freeze-dried. […] Samples buffer exchanged into 2 mM PB were first aliquoted.

The test system of data set [8] is aqueous solutions of VECTIBIX®. In words: Viscosity of concentrated aqueous solutions of VECTIBIX with and without BIM (mVROC microfluidic viscometer). The class given is physicochemical. As to conditions: 0.50M BIM, 25° C., pH 7.
The next data set concerns Sprague-Dawley rats. In words: Subcutaneous injection toxicity and irritation study (Draize evaluation scores, microscopic examination of injection sites). The class given is in vivo, rat. As for the experimental part: Clinical observations were recorded for any pharmaco-toxicological signs at pre-dose, immediately post-dose, at 1 and 4 hours (±15 minutes) post-dose, and daily thereafter. Irritation, if any, at injection sites was scored using the Draize evaluation scores pre-dose, immediately post-dose, at 1 hour (±15 minutes) post dose, and prior to sacrifice.

Data set [9] deals with aqueous solutions of biosimilar RITUXAN®. In words: Viscosity of concentrated aqueous solutions of biosimilar RITUXAN with BIM (mVROC microfluidic viscometer). The class given is physicochemical. As to conditions: 25° C., pH 7.
Setting [10] is: [IL] 0.5 M, [Protein] 230 mg/mL.

Turning to `CCCCn1cc[n+](C)c1.CS(=O)(=O)[O-]` [BMI Mes, 1-butyl-3-methylimidazolium methanesulfonate], the Viscosity stood at 47.8 ± 1.0 cP in data set [1] ([IL] 0.40 M, [Protein] 227 mg/mL); 35.2 ± 5.0 cP in [2] ([IL] 0.4 M, [Protein] 232 mg/mL); 36.3 ± 0.2 cP in [3] ([IL] 0.4 M, [Protein] 214 mg/mL); 69.2 ± 5.2 cP in [3] ([IL] 0.4 M, [Protein] 229 mg/mL); 46.5 ± 1.7 cP in data set [3] ([IL] 0.5 M, [Protein] 221 mg/mL); 82.0 ± 3.0 cP in data set [3] (setting [10]).

Turning to `Cl.N=C(N)NCCC[C@H](N)C(=O)O` [Arg HCl, Arginine-HCl, reference compound], in [2] ([IL] 0.25 M, [Protein] 228 mg/mL), the Viscosity turned out to be 37 ± 0.1 cP.

Regarding “palivizumab: humanized mAb against an epitope in the A antigenic site of the F protein of respiratory syncytial virus”, in data set [4], the “Reduction of the risk of hospitalization due to respiratory syncytial virus infection” value was 55% and 45%.

With “vedolizumab: mAb being developed by Millennium Pharmaceuticals for ulcerative colitis and Crohn's disease”, in [5], the “Patients achieving clinical remission” value is given as around 60%.

For `CCCC[N+]1(C)CCCC1.[Cl-]` [BMP Chloride, 1-butyl-1-methylpyrrolidinium chloride], the Viscosity in [1] ([IL] 0.40 M, [Protein] 210 mg/mL) is on record as 55.6 ± 2.0 cP; in data set [1] ([IL] 0.40 M, [Protein] 244 mg/mL), 99.2 ± 2.2 cP; in data set [2] ([IL] 0.4 M, [Protein] 249 mg/mL) it was 42.7 ± 1.9 cP; in data set [3] ([IL] 0.4 M, [Protein] 227 mg/mL), 63.0 ± 8.4 cP; in [3] (setting [10]), 60.8 ± 0.1 cP.

“4-ethyl-4-methylmorpholinium methylcarbonate [EMMC]”: the Viscosity reduction is around 3 fold in [1] (0.10 M EMMC) and “up to 7 fold” in data set [2] (0.10 M EMMC). Besides, the Viscosity in data set [1] ([IL] 0.10 M, [Protein] 253 mg/mL) stood at 60.2 ± 4.3 cP; in [2] ([IL] 0.1 M, [Protein] 232 mg/mL), 24.7 ± 0.3 cP; in data set [3] ([IL] 0.4 M, [Protein] 217 mg/mL) it was 38.7 ± 0.3 cP.

On to `CCCCn1cc[n+](CCCCS(=O)(=O)[O-])c1` [BIM, 4-(3-butyl-1-imidazolio)-1-butane sulfonate], for which the Viscosity in data set [6] ([BIM] 0.4 M, [biosimilar ERBITUX ®] 270 mg/mL) came out at 86.7 ± 2.1 cP; in data set [6] ([BIM] 0.5 M, [biosimilar ERBITUX ®] 257 mg/mL), 75.0 ± 0.3 cP; in data set [6] ([BIM] 0.75 M, [biosimilar ERBITUX ®] 263 mg/mL), 148 ± 2 cP; in data set [6] ([BIM] 1.0 M, [biosimilar ERBITUX ®] 279 mg/mL), 145 ± 2 cP; in data set [6] ([BIM] […], [biosimilar ERBITUX ®] 267 mg/mL), 347 ± 5 cP; in data set [1] ([IL] 0.40 M, [Protein] 223 mg/mL) it was 43.8 ± 0.4 cP. In addition, the Viscosity in [7] (0.50M BIM, REMICADE ® 222 ± 6 mg/mL, 25° C., pH 7) turned out to be 71.2 ± 2.9 cP; in data set [2] ([IL] 0.4 M, [Protein] 234 mg/mL) it was 43.6 ± 1.1 cP; in [8] (VECTIBIX ® 233 ± 4 mg/mL), 51.1 ± 3.7 cP; in [8] (VECTIBIX ® 291 ± 3 mg/mL) it was 170 ± 2 cP; in data set [3] ([IL] 0.2 M, [Protein] 215 mg/mL), 61.8 ± 0.3 cP; in data set [3] ([IL] 0.4 M, [Protein] 215 mg/mL), 47.3 ± 2.3 cP. Also, the Viscosity in data set [3] ([IL] 0.5 M, [Protein] 215 mg/mL) came to 41.9 ± 0.8 cP; in data set [9] (0.40M BIM, [Protein] 191 ± 2 mg/mL), 43.9 ± 1.6 cP; in data set [9] (0.40M BIM, [Protein] 203 ± 4 mg/mL) it was 65.4 ± 0.4 cP; in data set [9] (0.40M BIM, [Protein] 213 ± 4 mg/mL) it was 75.4 ± 1.0 cP; in [9] (0.50M BIM, [Protein] 213 ± 4 mg/mL), 83.9 ± 0.8 cP. Besides, the “Dependence of viscosity-lowering effect on BIM concentration” value in data set [6] (various concentrations of BIM, 0.3-[…]) is listed as “dose dependent manner up to about 0.50 M”. Also, the Viscosity reduction entry in data set [7] (0.50 M BIM, maximum over the proteins examined (REMICADE and VECTIBIX)) is reported as “up to 22 fold”. Besides, the “Observed consequences of injections compared with saline” value in the data set on Sprague-Dawley rats (0.5 mL of 0.25 M BIM subcutaneously vs phosphate-buffered saline, throughout the study) is on record as “macroscopically similar”. In the data set on Sprague-Dawley rats (0.5 mL of 0.25 M BIM subcutaneously, 1-3 daily injections), the “Irritation at injection sites” value is “no irritation to slight irritation”. For the same compound, the “Edema scores (Draize) at injection sites” value with Sprague-Dawley rats (0.5 mL of 0.25 M BIM subcutaneously, 1-3 daily injections, various time points) is listed as 0-2. Further, in the data set on Sprague-Dawley rats (0.5 mL of 0.25 M BIM subcutaneously, no longer evident by day 4), the “Microscopic examination of injection sites” value was “very minor, clinically insignificant, irritative effect”.
